The text below walks through data of patent US8969004B2, “Detection of immobilized nucleic acid” (Life Technologies Corporation, priority 2004, dated 2015).

The test system of series [1] is Salmonella typhimurium histidine auxotrophs TA97a, TA98, TA100, TA102, TA1535, TA1537 and TA1538. In words: Salmonella/Mammalian Microsomal Reverse Mutation Assay (Ames Test). The class given is cell-based. The note with it: for Ames test mutagenicity classification, early screens: early screens of nucleic acid complexing compounds; for increase in revertants compared to vehicle control (DMSO), TA97a: tester strain TA97a; for increase in revertants compared to vehicle control (DMSO), TA98: tester strain TA98; for increase in revertants compared to vehicle control (DMSO), TA100: tester strain TA100; for increase in revertants compared to vehicle control (DMSO), TA102: tester strain TA102; for increase in revertants compared to vehicle control (DMSO), TA1535: tester strain TA1535; for increase in revertants compared to vehicle control (DMSO), TA1537: tester strain TA1537; for increase in revertants compared to vehicle control (DMSO), TA1538: tester strain TA1538. The method, then:
The Ames assay was performed using the method described by Ames (Ames et al Mutation Research 31 (1975) 347-364; Levin et al. PNAS 79 (1982) 7445-7449; Maron and Ames, Mutation Research 113 (1983) 173-215). Tester stains used were Salmonella typhimurium histidine auxotrophs TA97a, TA98, TA100, TA102, TA1535, TA1537 and TA1538. […] The test compounds, test vehicle and S9 (when appropriate) were combined with molten agar and then overlaid over a minimal agar plate. Following incubation at 37° C., revertant colonies were counted. When S9 was not used, 100 μl of tester strain and 50 μl of control or test compound were added to 2.5 ml of selective top agar. When S9 was used, 500 μl of S9 mix, 100 μl of tester strain and 50 μl of control or test compound was added to 2.0 ml of selective top agar. The top agar was then overlaid onto the surface of 25 ml of minimal bottom agar contained in a 15×100 mm Petri dish. The inverted plates were incubated for 52±4 hr at 37±2° C.
The number of revertants was counted and the test compounds were either considered non-mutagenic or mutagenic. The criteria for determining if a test compound was mutagenic was based on a 2-fold increase in mean revertants per plate for at least one tester strain (TA97a, TA98, TA100 and TA102) over the mean revertants per plate of the appropriate vehicle control. For tester strains TA1535, TA1537 and TA 1538 a positive mutant was identified by a 3-fold increase in mean revertants per plate compared to the appropriate vehicle control. In addition, the increase in the mean number of revertants per plate needed to be accompanied by a dose response to increasing concentrations of the test compound. […] Thiazole orange was also considered mutagenic for two of the tester strains in the absence of S9. Thus, compared to ethidium bromide, thiazole orange is 3-4 times less mutagenic and Compound 1 is 4-5 times less mutagenic. Ethidium bromide and Sybr Green I had previously been tested wherein Sybr Green I was considered a weak mutagen (Singer et al. Mutation Research 439 (1999) 37-47).
On the technique in general: The Ames test uses bacterial strains that need an amino acid and regain growth without it when mutated back.

Series [2] is described as follows: Hazardous Waste Screening Test (toxicity to aquatic life). The class given is in vivo, Pimephakes promelas. As to conditions: fathead minnow (Pimephakes promelas), in vivo, other: exposure in tank water containing the compound; fathead minnows; 96 hour exposure. As for the experimental part:
(§1) Compound 1 was tested to determine whether or not the compound was hazardous or toxic to aquatic life. Ten fathead minnows (Pimephakes promelas) were placed each in a 8 liter tank containing vehicle control and a concentration of Compound 1 at 250 mg/L, 500 mg/L and 750 mg/L. After a 96 hour exposure period the number of viable minnows were counted. The survival rate of the minnows for the control and Compound 1 was 100%. Thus, compound 1 has a LC50 value […], which is classified as not hazardous under CCR Title 22 acute toxicity to aquatic life.

The test system of series [3] is fathead minnows (Pimephakes promelas). Described as above. The class given is in vivo. The method, then: as §1
For series [4], the system named is MRC5 human lung fibroblast cells. Briefly: Cell Permeability on Live Eukaryotic Cells. The format is cell-based. The note with it: 0.5, 1.0, 5.0 and 10.0 μM; 5 minutes at 37° C.; fluorescence microscopy. The method, then: MRC5 human lung fibroblast cells were harvested and grown in complete culture media (DMEM+10% FBS) for one day after seeding coverslips. Cells were then removed from complete media and placed in Hank's balanced salt solution w/sodium bicarbonate (HBSS) supplemented with 5 mM HEPES, 100 uM L-glutamine and 100 uM succinate containing varying concentrations of Compound 1. Concentrations tested included 0.5, 1.0, 5.0 and 10.0 μM. Cells were incubated for 5 minutes at 37° C./[…] Cells were washed 3×30 seconds in HBSS and mounted on microscope slides in HBSS and sealed with paraffin. After mounting, slides were examined on a Nikon Eclipse 800 upright fluorescent microscope and imaged with standard FITC and TRITC filter sets, a Princeton Instrument MicroMax cooled CCD camera, and Universal Imaging MetaMorph imaging software. […] Signal associated with Compound 1 is detectable with both FITC and TRITC filter sets with greater signal intensity using the FITC set. Regardless of concentration, nucleolar labeling seems to be the most prominent and appears to become slightly more prominent at lower concentrations. Off cell background was minimal in all cases.

Series [5] in a line: NPDES testing for compliance with the Clean Water Act. The method, then:
The testes were performed according to EPA protocols cited in Table 9.

The next series deals with DNA in a 1% agarose gel. Briefly: Detection of DNA separated and immobilized in an agarose gel. The note with it: for ability to detect nucleic acid immobilized in a gel by electrophoresis: excited with UV light, about 300 nm.
The test system of series [6] is Syrian hamster embryo (SHE) cells. The note with it: for MT Frequency (%) / RPE (relative plating efficiency): Syrian hamster, 7 day.
Series [7] concerns cultured human lymphocytes. In words: Screening Assay for Chromosomal Aberrations in Cultured Human Peripheral Blood Mononuclear Cells (PBMC). The format is cell-based. The method, then: Human venous blood from healthy adult volunteers was drawn in heparinized vacutainers. The whole blood cultures were initiated in 15 ml centrifuge tubes by adding approximately 0.3 ml of fresh heparinized blood into a sufficient volume of culture medium, to that the final volume was 5 mL in the assay with and without metabolic activation after the addition of the test compound. The culture medium was RPMI 1640 supplemented with approximately 20% heat-inactivated fetal bovine serum (FBS), penicillin (100 units/mL), streptomycin (100 μg/mL), L-glutamine (2 mM) and 2% phytohemagglutinin M (PHA-M). The cultures were incubated with loose caps at 37° C.±2° C. in a humidified chamber of approximately 5% CO2 in air.
The in vitro metabolic activation system consisted of a rat liver post-mitochondrial fraction (S9) and an energy-producing system (NADPH plus isocitric acid) (Maron and Ames, 113 Mutation Research (1983) 173-215).
Two days after culture initiation, the cultures were treated with the test compounds. […]
At the end of the incubation period the cultures were centrifuged, the supernatant discarded, and the cells swollen with 75 mM KCl, fixed in methanol:glacial acetic acid (3:1 v/v), dropped onto glass slides and air dried. The slides were stained with 5% Giemsa and air dried and then analyzed for mitotox index, chromosomal aberrations including polyploidy and endoreduplication.

In series [8] the test system is Salmonella typhimurium histidine auxotrophs TA97a, TA98, TA100, TA102, TA1535, TA1537 and TA1538. As to conditions: cited from earlier work.
Series [9] concerns Syrian hamster embryo (SHE) cells. Briefly: In Vitro Transformation of Syrian Hamster Embryo (SHE) Cells by 7-Day Exposure Screening Assay.
Setting [10] is: in the presence of S9 (rat liver extract).

Structures are written as SMILES. “Also recorded” adds a separate entry of the source. Read-outs that look alike come from different tables or passages of the source.

As a reminder, the LC50 is the concentration that kills 50% of the test population. Take `CCC[n+]1ccc(/C=C2\Sc3ccccc3N2C)c2ccccc21` [Compound 1]: the “times less mutagenic compared to ethidium bromide” value in [1] (Ames test) is given as 4-5 times. In series [1], the “Ames test mutagenicity classification, early screens” value is listed as “either mildly mutagenic or non-mutagenic”; the “increase in revertants compared to vehicle control (DMSO), TA97a” value (from here on “increase in revertants … TA97a”) is 3.3; the “increase in revertants compared to vehicle control (DMSO), TA98” value (shortened to “increase in revertants … TA98”) worked out at 3.0; the “increase in revertants compared to vehicle control (DMSO), TA100” value (shortened to “increase in revertants … TA100”) amounted to 1.7. Besides, in series [1], the “increase in revertants compared to vehicle control (DMSO), TA102” value (“increase in revertants … TA102” below) was found to be 3.7; the “increase in revertants compared to vehicle control (DMSO), TA1535” value (from here on “increase in revertants … TA1535”) amounted to 1.8; the “increase in revertants compared to vehicle control (DMSO), TA1537” value (“increase in revertants … TA1537” below) is recorded as 1.8; the “increase in revertants compared to vehicle control (DMSO), TA1538” value (shortened to “increase in revertants … TA1538”) was 3.7. Further, the “Ames test mutagenicity classification” value in series [1] (setting [10]) is given as “mild or non-mutagenic; also recorded: Weakly positive”. The molecule also yielded an LC50 at 96 h in [2] of more than 500 µg/mL. Besides, the “survival rate of the minnows” value in series [3] (250 mg/L, 500 mg/L and 750 mg/L, 96 hour exposure) worked out at 100%. In series [3] (CCR Title 22), the “hazard classification, acute toxicity to aquatic life” value is “not hazardous; also recorded: non-hazardous to aquatic life”. Moreover, the “cell permeability in live cells” value in series [4] was “cell permeable”. In series [5], the “compliance with the Clean Water Act and NPDES regulations” value is reported as “complies”. In the series with DNA in a 1% agarose gel (1% agarose gel, post-stained 30, 60 and 90 minutes, 1 μM in TBE, 62.5 ng to 30.52 pg DNA), the “sensitivity of nucleic acid detection in a gel” value is on record as “at least as sensitive as ethidium bromide”. The “ability to detect nucleic acid immobilized in a gel by electrophoresis” value with DNA in a 1% agarose gel is reported as “able to detect nucleic acid”. In [6] (0.04 μg/mL), the “MT Frequency (%)” value worked out at 0.731% and the “RPE (relative plating efficiency)” value worked out at 97%. For the same molecule, in [6] (0.05 μg/mL), the “MT Frequency (%)” value stood at 0.442% and the “RPE (relative plating efficiency)” value was determined as 120%. Further, in series [6] (0.2 μg/mL), the “MT Frequency (%)” value is 0.313% and the “RPE (relative plating efficiency)” value is listed as 85%. Also, in series [6] (0.26 μg/mL), the “MT Frequency (%)” value amounted to 0.294% and the “RPE (relative plating efficiency)” value was 25%. Further, in series [6] (0.3 μg/mL), the “MT Frequency (%)” value turned out to be 0.144% and the “RPE (relative plating efficiency)” value came out at 59%. Also, in series [6] (0.4 μg/mL), the “MT Frequency (%)” value is given as 1.304% and the “RPE (relative plating efficiency)” value is 66%. In series [6] (0.8 μg/mL), the “MT Frequency (%)” value amounted to 0.635% and the “RPE (relative plating efficiency)” value was 28%.
For the molecule `CC[n+]1c(-c2ccccc2)c2cc(N)ccc2c2ccc(N)cc21` [Ethidium bromide, ethidium bromide], the “Ames test mutagenicity classification” value in series [1] (setting [10]) is “mutagenic”. In addition, in series [1], the “increase in revertants … TA97a” value is given as 4.4; the “increase in revertants … TA98” value came out at 68.0; the “increase in revertants … TA100” value was 1.6; the “increase in revertants … TA102” value was found to be 2.0. In addition, in series [1], the “increase in revertants … TA1535” value is given as 1.4; the “increase in revertants … TA1537” value is listed as 15; the “increase in revertants … TA1538” value is 80. In series [7] (with and without S9 metabolic activation), the “Chromosomal Aberrations Test, cultured human peripheral blood lymphocytes: result” value is listed as “negative”. In addition, in series [8] (McCann et al. 1975, Singer et al. 1999), the “Ames test mutagenicity classification (previously tested, literature)” value was “mutagenic”. Moreover, in series [9] (0.200 μg/mL), the “RPE (relative plating efficiency)” value is given as 85%. The “RPE (relative plating efficiency)” value in series [9] (0.400 μg/mL) stood at 66%. The “RPE (relative plating efficiency)” value in series [9] (0.800 μg/mL) came out at 28%. The “Transformation Test, Syrian hamster embryo (SHE) cells: result” value in series [9] (morphological transformation vs vehicle control) is reported as “positive”.
With `CCCN(CCCN(C)C)c1cc(/C=C2/Sc3ccccc3N2C)c2ccccc2[n+]1-c1ccccc1` [Sybr Green I], the “Ames test mutagenicity classification (previously tested, literature)” value in series [8] was “weak mutagen”.
Regarding `CN1C=C/C(=C\c2sc3ccccc3[n+]2C)c2ccccc21` [Thiazole orange, thiazole orange], in series [1], the “Ames test mutagenicity classification, early screens” value was “either mildly mutagenic or non-mutagenic”; the “increase in revertants … TA97a” value is reported as 6.9; the “increase in revertants … TA98” value is recorded as 6.4; the “increase in revertants … TA100” value is on record as 2.2. In [1], the “increase in revertants … TA102” value is 4.7; the “increase in revertants … TA1535” value stood at 1.5; the “increase in revertants … TA1537” value came to 17.4; the “increase in revertants … TA1538” value is on record as 7.8. Besides, the “Ames test mutagenicity classification” value in [1] (in the absence of S9, two of the tester strains) is “mutagenic”. Also, the “Ames test mutagenicity classification” value in series [1] (setting [10]) was “mutagenic”. The “Chromosomal Aberrations Test, cultured human peripheral blood lymphocytes: result” value in [7] is “negative”. Besides, the “ability to detect nucleic acid immobilized in a gel by electrophoresis” value with DNA in a 1% agarose gel is on record as “able to detect nucleic acid”. Also, the “Transformation Test, Syrian hamster embryo (SHE) cells: result” value in series [6] is reported as “positive”. In addition, in [6] (0.04 μg/mL), the “RPE (relative plating efficiency)” value was 97%. For the same molecule, the “RPE (relative plating efficiency)” value in series [6] (0.15 μg/mL) was 52%. For the same molecule, the “RPE (relative plating efficiency)” value in [6] (0.26 μg/mL) stood at 25%.
